This note sets out measurements from patent US7973062B2, “Androgen receptor-ablative agents” (The Ohio State University Research Foundation, priority 2008, dated 2011).

Holding throughout (assay type): cell-based
One test deals with LNCaP and PC-3 cells. In words: Cell counting assay for cell proliferation, LNCaP versus PC-3. The conditions noted are these: Coulter counter (FIG. 5B). As to the method:
(§1) Cell Counting and Cell Viability Assay. LNCaP or PC-3 cells were placed in six-well plates (2.5×10^5 cells/well) in 10% FBS-supplemented RPMI 1640 for 24 h, and treated with various concentrations of compound 12 for additional 24, 48 and 72 h. Cells were then trypsinized and counted by using a Coulter counter (Model Z1 D/T, Beckman Coulter, Fullerton, Calif.). Cell viability was assessed by using the 3-(4,5-dimethylthiazol-2-yl)-2,5-diphenyl-2H-tetrazolium bromide (MTT) assay in six replicates in 96-well plates. LNCaP or PC-3 cells were seeded at 6000 cells per well in 10% FBS-supplemented RPMI 1640 for 24 h, followed by treatments with various compounds in 5% FBS-supplemented RPMI 1640 at the indicated concentrations. Controls received DMSO at a concentration equal to that in drug-treated cells. After the end of incubation, MTT (0.5 mg/ml) in 10% FBS-supplemented RPMI 1640 was added to each well, and cells were incubated at 37° C. for 2 hours. Medium was removed and the reduced MTT dye was solubilized in DMSO (200 μl/well). Absorbance was determined at 570 nm by a 96-well plate reader.

Test [1] deals with PC-3 androgen-nonresponsive prostate cancer cells. The experiment in a line: MTT cell viability assay, PC-3 cells. The conditions noted are these: Homo sapiens, 5% FBS, read-out: IC50 for suppressing cell viability. As to the method:
as §1
A general note: Formazan colour is commonly taken as a measure of viable cells.

In another test the test system is LNCaP cells. The experiment in a line: Flow cytometric cell cycle analysis in LNCaP cells. The conditions noted are these: 72 h. As to the method:
Cell Cycle Analysis. LNCaP cells were seeded in 6-well plates ([…]) and treated with different concentrations of compound 12 for 72 h. After extensive washing with PBS, cells were trypsinized followed by fixation in ice-cold 80% ethanol at 4° C. overnight. Cells were then centrifuged for 5 min at 1500×g at room temperature, and stained with propidium iodide (50 μg/ml) and RNase A (100 units/ml) in PBS. Cell cycle phase distributions were determined on a FACScort flow cytometer and analyzed by the ModFitLT V3.0 program.

Another test deals with AR promoter. In words: AR promoter-luciferase reporter assay in transiently transfected LNCaP cells. The conditions noted are these: compounds at 10 μM, 48 h, ciglitazone and Δ2CG at 20 μM. The source says:
Transfection and Luciferase assay. The 3.6-kilobase AR promoter-linked reporter plasmid p-3600ARCAT was kindly provided by Dr. Chawnshang Chang (University of Rochester Medical Center, Rochester, N.Y.). The AR promoter gene (−3600 to +550) encompassing the transcription start site was isolated by using PCR to generate hAR-luc with suitable primers. The fragment was subcloned into the pGL3 luciferase reporter vector (Promega, Madison, Wis.) at KpnI and BglII in the multiple cloning site. The PPRE-x3-TK-Luc reporter vector contains three copies of the PPAR-response element (PPRE) upstream of the thymidine kinase promoter-luciferase fusion gene and was kindly provided by Dr. Bruce Spiegelman (Harvard University, Cambridge, Mass.). The pCMVSp1 plasmid was purchased from Origene Technologies, Inc. (Rockville, Md.). LNCaP or PC3 cells were transfected with 5 μg of individual plasmids in an Amaxa Nucleofector using a cell line-specific nucleofector kit according to the manufacturer's protocol (Amaxa Biosystems, Cologne, Germany), and then seeded in 6-well plates at 5×10^5 cells per well for 48 h. The transfection efficiency was determined to be 70-80% by transfecting cells with 2 μg of pmaxGFP plasmid, followed by fluorescence microscopy to measure GFP expression. For each transfection, herpes simplex virus thymidine kinase promoter-driven Renilla reniformis luciferase was used as an internal control for normalization.
For the reporter gene assay, after transfection, cells were cultured in 24-well plates in 10% FBS-supplemented RPMI 1640 medium for 48 h, subject to different treatments for the indicated times, collected, and lysed with passive lysis buffer (Promega). Fifty-μl aliquots of the lysates were added to 96-well plates, and luciferase activity was monitored after adding 100 μl of luciferase substrate (Promega) each well by using a MicroLumatPlus LB96V luminometer (Berthold Technologies, Oak Ridge, Tenn.) with the WinGlow software package. All transfection experiments were carried out in six replicate.
In general terms: In a reporter assay the amount or activity of a reporter protein is the signal.

Test [2] relates to PARP cleavage, caspase 3 and caspase 7 activation. The experiment in a line: Western blot of apoptosis-related biomarkers in LNCaP cells. The conditions noted are these: 72 h.

As a reminder, the IC50 is the point on the concentration scale where inhibition reaches its midpoint.

Where two headings read alike, the source gives them in different places.

Regarding `CC1(CN2C(=O)S/C(=C\c3ccc(O)c(C(F)(F)F)c3)C2=O)CCCCC1` [Compound 12, 5-(4-Hydroxy-3-trifluoromethyl-benzylidene)-3-(1-methyl-cyclohexylmethyl)-thiazolidine-2,4-dione], in the test with LNCaP and PC-3 cells, the “potency in inhibiting proliferation of LNCaP cells compared to PC-3 cells” value is reported as “at least twofold higher potency”. The results for the IC50 in test [1] (48 h) and in test [1] (72 h) were 15 µM and 12 µM, respectively. The cell cycle distribution result in the test with LNCaP cells is “dose-dependent increase in the sub-G1 population, accompanied by decreases in the G2/M phase”. Moreover, in the test on AR promoter, the “suppression of AR promoter-luciferase activity / AR transcription (in words)” value is “optimal agents”. In addition, in test [2], the “apoptosis-related biomarkers: PARP cleavage, proteolytic activation of caspase 3 and caspase 7” value is “dose-dependent effects”.
